These results are taken from patent EP0171968A1, “Use of a phospholipid derivative” (Takeda Chemical Industries, Ltd., priority 1984, dated 1986).

Each structure is given as a SMILES string. In brackets after ≈: the same amount, converted by molar mass. A value given as a limit tells only on which side of the number the result lay.

For one data set, the system named is Meth A cells. Briefly: Necrotic effect against the Meth A tumor tissue. The data set is classed as in vivo, Balb/c mice. The following applies: given intravenously, 7 days after transplantation, observed after 24 hours.
Data set [1] deals with S 180 cells. Briefly: Antitumor effect against mice bearing S 180 tumor (intraperitoneal inoculation, survival). The data set is classed as in vivo, ICR mice. Conditions: 0.3 mg/mouse once a day, three times in total; for T/C (%) (life-span prolongation ratio against the control group): control group average survival 12.2 days; for Number of mice surviving for 50 days: group of five ICR mice inoculated intraperitoneally with 1 x 10^5 S 180 cells. The method, then: ICR mice (a group consisting of five mice) were inoculated intraperitoneally with 1 x 10^5 S 180 cells per mouse, and then'given 0.3 mg/mouse of l-O-octadecyl-2-0-(morpholinocarbonyl)glycero-3-phosphocholine (Compound No. 1) dissolved in physiological saline once a day, three times in total, on the day of the inoculation and on the next day and the second day after the inoculation. The average of the survival days for the control group (consisting of 5 mice) was 12.2 days, whereas the number of surviving' mice in the drug-treated group on the 50th day and the life-span prolongation ratio (T/C) against the control group, are shown in Table 1.
In a similar manner, a test was carried out with 1-O-octadecyl-2-O-methylglycero-3-phosphocholine used as a control drug (A), with the results being shown below.

Data set [2] relates to human myelocytic leukemia cells HL-60. Briefly: Growth inhibiting effect and differentiation inducing activity on HL-60 (method of R. Gallo et al.). The data set is classed as cell-based. The following applies: HL-60 cells. The protocol:
According to the method of R. Gallo et al. described in Blood 54 (3), 713 (1979), the growth inhibiting effect (IG effect)and differentiation inducing activity of 1-0-octadecyl-2-O-(morpholinocarbonyl)glycero-3-phosphocholine against human myelocytic leukemia cells HL-60 were assayed.

The test system of a further data set is rat platelet. The data set is described as follows: Platelet aggregation. The class given is cell-based. Conditions: concentration of 3 x 10-^5 M. The text has this: Neither l-0-octadecyl-2-0-(morpholinocarbonyl)glycero-3-phosphocholine nor 3-octadecyloxy-2-(morpholino-carbonyloxy)propyl 2-thiazolioethyl phosphate at a concentration of 3 x 10-^5 M caused platelet aggregation against rat platelet.

The subject of data set [3] is S 180 cells. Briefly: Activity toward mice bearing the Sarcoma 180 tumor (subcutaneous transplant, tumor weight). The class given is in vivo, ICR mice. The following applies: 25 mg/kg injected into the tumor every four days from the 7th day, four times; for Proliferation inhibition ratio (%): 24th day, against control group; for Weight of tumor: measured on the 24th day. The protocol: ICR mice (male, 8-week-old, a group consisting of 5 mice), as divided into two groups, were transplanted subcutaneously with 1 x 10^6 S 180 cells per mouse, respectively. One group was treated with the drug by injection into the tumor every four days commencing with the 7th day after the transplantation, four times in total. On the 24th day, the average tumor weight for the drug-treated group was measured, and the ratio (the tumor proliferation inhibition ratio) against that for the control group (not treated with the drug) was calculated.

For the compound `CCCCCCCCCCCCCCCCCCOCC(COP(=O)([O-])OCC[N+](C)(C)C)OC(=O)N1CCCC1` (centres unmarked) [1-O-octadecyl-2-O-(pyrrolidinocarbonyl)glycero-3-phospho-choline], in the data set on Meth A cells (25 mg/kg), the “change of the tumor tissue (necrosis)” value was “necrosis through bleeding”.
For `CCCCCCCCCCCCCCCCCCOCC(COP(=O)([O-])OCC[N+](C)(C)C)OC(=O)N1CCOCC1` (stereo not drawn) [Compound 1, l-O-octadecyl-2-0-(morpholinocarbonyl)glycero-3-phosphocholine], in the data set on S 180 cells [1], the “T/C (%) (life-span prolongation ratio against the control group)” value is greater than 336% and the “Number of mice surviving for 50 days” value is 2. Also, the “change of the tumor tissue (necrosis)” value with Meth A cells (1.25 mg/kg) is reported as “necrosis through bleeding”. The differentiation inducing activity entry in data set [2] (concentration of 1-2 ug/ml) was “mild differentiation inducing activity”. The IC50 in data set [2] (Homo sapiens, read-out: IG effect on HL-60 (GD50)) stood at 0.6 µg/mL (≈ 0.963 µM). For the same compound, in the data set on rat platelet, the “caused platelet aggregation against rat platelet” value is given as “Neither”.
Regarding `CCCCCCCCCCCCCCCCCCOCC(COP(=O)([O-])OCC[N+](C)(C)C)OC` (centres unmarked) [Control drug A, 1-O-octadecyl-2-O-methylglycero-3-phosphocholine, reference compound], in the data set on S 180 cells [1], the “T/C (%) (life-span prolongation ratio against the control group)” value came to 162% and the “Number of mice surviving for 50 days” value was 0.
Consider `CCCCCCCCCCCCCCCCCCOCC(COP(=O)([O-])OCC[N+](C)(C)C)OC(=O)N1CCCCC1` (centres unmarked) [Drug 2, 1-O-Octadecyl-2-O-(piperidinocarbonyl)glycero-3-phosphocholine], for which, in the data set with S 180 cells [3], the “Proliferation inhibition ratio (%)” value was 52.4% and the “Weight of tumor” value was determined as 0.71 g.
Turning to `CCCCCCCCCCCCCCCCCCOCC(COP(=O)([O-])OCC[n+]1ccsc1)OC(=O)N1CCOCC1` (centres unmarked) [Drug 3, 3-Octadecyloxy-2-(morpholinocarbonyloxy)propyl 2-thiazolioethyl phosphate], in the data set with S 180 cells [3], the “Proliferation inhibition ratio (%)” value stood at 73.9% and the “Weight of tumor” value amounted to 0.39 g. In the data set on rat platelet, the “caused platelet aggregation against rat platelet” value was “Neither”.
